Reference: a melting point compilation (Tetko et al.; mined from patent text by program, amines drawn as free bases though some values may be those of a salt)

Row | Structure (SMILES) | melting point [°C]
1 | O=[N+]([O-])c1ccc(C2OCCO2)nc1 | 104 to 105
2 | O=C1CCC2=C1C(c1ccc(F)c(F)c1)C1=C(CCS1)N2 (configuration not stated) | > 260
3 | COc1ccc(N2CCN(c3c(C)c(C)c4c(c3C)C(Nc3ccccc3)C(C)(C)O4)CC2)cc1 (configuration not stated) | 90 to 94
4 | O=C1OC(c2ccccc2)C(c2ccccc2)=C1C(=O)N1CCOCC1 (configuration not stated) | 204 to 206
5 | CC(=O)NC[C@H]1CN(c2ccc(N3CCC(Cc4nnn[nH]4)CC3)c(F)c2)C(=O)O1 | 164 to 166
6 | c1ccc(Cc2ccccc2C2CCN(CCCOc3ccccc3)CC2)cc1 | 139 to 140
7 | COc1cc(C(=O)NCc2ccc(N)cc2)cc(OC)c1OC(C)=O | 47 to 48
8 | N#Cc1ccc([C@@H]2[C@@H]3C(=O)N(CC4CCCCC4)C(=O)[C@@H]3[C@H]3CCCN32)cc1 (racemic) | 119 to 122
9 | CCOC(=O)C1C(=O)N(C)C(=S)N(C)C1=O | 90 to 93
10 | COC1CCN(C2CCN(c3ccc(NC(=O)c4cnn(-c5ccc(Cl)cc5)c4C)cc3C#N)CC2)CC1 | 245
11 | C=CCNC(=O)NNC(=O)c1cccnc1 | 165 to 167
12 | O=C1OCCC1Oc1ccc(Cl)cc1[N+](=O)[O-] (configuration not stated) | 136 to 140
13 | O=C(c1ccccc1)c1cc([N+](=O)[O-])ccc1-n1nc(CCl)cc1CCl | 152 to 155
14 | O=C(Nc1ccc(Cl)cc1)C(CS)Cc1ccccc1 (configuration not stated) | 142
15 | O=C(NCCOc1ccc(CC(Oc2cccc(F)c2)C(=O)O)cc1)c1ccc(-c2ccccn2)cc1 (configuration not stated) | 136 to 138
16 | CNC(=O)NC1CCC(O)c2ccccc21 (configuration not stated) | 172 to 180
17 | Cc1ccc(CC2(O)CCN(C(C)C(=O)Nc3ccc(O[Si](C)(C)C(C)(C)C)cc3)CC2)cc1 (racemic) | 134 to 138
18 | Cn1cc(CCl)c(=O)c2ccc(F)cc21 | 169 to 171
19 | COC(=O)CN(c1ccc(Cl)cc1C(=O)c1ccccc1F)S(=O)(=O)c1ccc(N)cc1 | 168 to 170
20 | Cn1ccc2c(NC(=O)c3ccccc3O)cccc21 | 211
21 | Cc1nc(Nc2ccccc2)sc1-c1nc2ccccc2c(=O)n1-c1ccccc1Cl | 228 to 229

Row | Structure (SMILES) | melting point [°C]
22 | NCc1ccc2c(c1)ncn2-c1cccc(-c2ccc(F)nc2)c1 | 141 to 143
23 | COc1cc(C(=O)N2CCC(CCN3CCC(C(=O)c4nc5ccccc5n4Cc4ccc(F)cc4)CC3)(c3ccc4c(c3)OCO4)C2)cc(OC)c1OC (configuration not stated) | 112 to 114
24 | CNC(=O)Nc1cc(CNc2ncccc2C(=O)OC)ccn1 | 145 to 146
25 | O=c1c(Cc2ccc(-c3ccccc3)cc2)coc2cc(OS(=O)(=O)C(F)(F)F)ccc12 | 110
26 | COC(=O)NNS(=O)(=O)c1ccccc1 | 149 to 154
27 | Fc1ccc(C2=NOC(CN=C=S)C2)cc1 (configuration not stated) | 59 to 61
28 | COc1cc2nc(N3CCN(c4nc5cccccc-5n4)CC3)nc(N)c2cc1OC | 189 to 193
29 | O=[N+]([O-])c1cc(C=Cc2ccncc2)cc(O)c1O | > 350
30 | O=C(Nc1ccc(C(F)(F)F)cc1)NC1CCOCC1 | 196 to 198
31 | Cc1c(NC(=O)c2ccc(OCC3CCOC3)cc2)ccc2cc(CNCC3CCOCC3)cnc12 (configuration not stated) | 122 to 123
32 | COCCN(c1cccc2cc(C(=O)NCCSC(c3ccccc3)(c3ccccc3)c3ccccc3)[nH]c12)S(=O)(=O)c1cccs1 | 65 to 66
33 | CC1(C)NCCc2ccccc2C1c1ccccc1 (configuration not stated) | 99 to 100
34 | CC(C)(C)c1cccc(S(=O)(=O)n2c(Cc3cccc(C(=O)O)c3)cc3cc(C(F)(F)F)ccc32)c1 | 146
35 | COc1ccc(CN2C(=O)c3c(-c4ccccc4Cl)cc4c(c3C2=O)c2cc(OC)ccc2n4CCC(O)CO)c(OC)c1 (configuration not stated) | 126 to 131
36 | CC1c2ccccc2CCN1C(=O)c1cc2ncc(Br)cn2n1 (configuration not stated) | 121 to 123
37 | NC(c1ccccc1)c1ccc(O)cc1 (configuration not stated) | 113 to 115
38 | CCc1c(C)cccc1C(=O)NC1CN2CCC1CC2 (racemic) | 125
39 | CN(Cc1ccc(COC(=O)NC(Cc2ccccc2)C(=O)O)cc1)c1ccccc1 (configuration not stated) | 69.6 to 70.1
40 | NC1(C(F)F)CCCNC1=O (configuration not stated) | 149
41 | O=C(CC[N+](=O)[O-])c1ccccc1 | 59 to 62
42 | CN1C(=O)C(C(=O)Nc2ccc(Oc3ncc(Cl)cc3Cl)cc2)C(=O)N(C)C1=O | 234 to 235

Row | Structure (SMILES) | melting point [°C]
43 | O=[N+]([O-])c1cccc2cc(-c3nccs3)[nH]c12 | 130 to 131
44 | C[C@@H](C(N)=O)c1ccc(NS(=O)(=O)c2ccccc2)cc1 | 152 to 153
45 | CN(C)C(CN1CCN(c2ccc(F)cc2)CC1)CN1c2cccc3cccc(c23)S1(=O)=O (configuration not stated) | 118
46 | CC(=O)C(=O)Oc1ccc(NCc2c(F)c(F)c(C(F)(F)F)c(F)c2F)cc1C(=O)O | 128
47 | COC(=O)c1cccc(NC(=O)CC(=O)c2ccccc2)c1C(=O)OC | 100 to 103
48 | OCC=C(c1ccccc1)c1ccccc1 | 112 to 115
49 | COc1cc(O)c(C(=O)C=Cc2ccc3nc[nH]c3c2)c(OC)c1 | 147 to 149
50 | CCOC(=O)C1(c2cccc(Cl)c2C)CCN(S(=O)(=O)c2ccc(C)cc2)CC1 | 134
51 | CC(CC(C)C1CCC2C3C(O)CC4CC(O)CCC4(C)C3CCC12C)C(=O)O (configuration not stated) | 125 to 127
52 | O=C(NCc1ccccc1)c1cc(N2CCN(Cc3ccc(F)cc3)C2=O)n[nH]1 | 262 to 263
53 | CN(C)C1(c2ccccc2)CCC(NC(=S)NCCCc2ccccc2)CC1 (configuration not stated) | 75 to 80
54 | NNC(=O)C(=O)N(NC(=O)c1cc(Cl)ccc1O)C(=O)c1ccccc1O | > 330
55 | CC(Cc1c[nH]c2ccccc12)(NC(=O)OC1C2CC3CC(C2)CC1C3)C(=O)NC1(CC(=O)O)CCCCC1 (configuration not stated) | 174
56 | CN(C)S(=O)(=O)NCC(C)(C)N | 77 to 78
57 | O=C(O)c1ccc(C=CC(=O)c2ccc(O)cc2)cc1 | 300 to 302
58 | O=C(NC1CC1)c1cccc(-c2cccn3c(=O)n(Cc4cccc(C(F)(F)F)c4)nc23)c1 | 157 to 158
59 | O=C(NC1CCCCC1)N[C@H]1C[C@H](C(=O)O)Nc2cc(Cl)cc(Cl)c21 (relative stereo) | 217 to 219
60 | CCCS(=O)(=O)c1ccc(NS(=O)(=O)c2cccs2)c2[nH]c(C(=O)NCCSC(c3ccccc3)(c3ccccc3)c3ccccc3)cc12 | 200 to 201
61 | O=S1(=O)c2cccc3cccc(c23)N1CCCN1CC=C(c2c[nH]c3ccc(Cl)cc23)CC1 | 189

Further lines, results first:

Row | melting point [°C] | Structure (SMILES)
62 | 228 to 230 | CSc1nc(CC2CCN(c3ccc(F)cc3)CC2)nc(C(=O)NCC(=O)O)c1O
63 | 88 to 89 | CCCCc1nc(C(=O)C(C)C)c(C#N)[nH]1
64 | 201 | CC(=O)Nc1nc(C)c(S(=O)(=O)NC(C)(CO)CO)s1
65 | 140 to 142 | CCOC(=O)c1cc(/C=C/c2ccc3ccccc3n2)cn1C
66 | 95 to 96 | CC(C)(C)OC(=O)Cn1c(C(=O)OCc2ccccc2)cc2ccccc21
67 | 181 | CCc1ccc2c(c1)cc(C(=O)O)n2CC(=O)OC
68 | 140 | CCCc1c(OCCCSc2ccc(C(=O)CCC(=O)O)c(O)c2)ccc(C(C)=O)c1O
69 | 104 to 105 | COC(=O)NC(C)Cc1cccc([N+](=O)[O-])c1 (configuration not stated)
70 | 98 to 99 | O=C(O)CCc1ccccc1OCCCCCOc1ccc2c(c1CCCc1ccccc1)OCCC2=O
71 | 198 to 199 | CC(C)(O)CC1c2ccccc2C(=O)N1CC(=O)O (configuration not stated)
72 | 118 | CCOC(=O)c1cnc2c(O)cccc2c1
73 | 159 to 161 | CC1=NC(C)(C)SC1=NO
74 | 58 to 60 | CCOC(=O)C(C)(C)Oc1ccc(CNc2ccc(Cl)cc2)cc1
75 | 118 to 120 | CC(=O)Nc1ccc(OCC(O)CN(C)C)c(NC(C)=O)c1 (configuration not stated)
76 | 43 to 45 | CCOC(=O)c1c(C(F)F)nc(C(F)(F)F)c(C(=O)OCC)c1-c1ccncc1
77 | 161 | CCOC(=O)C1=C(C)OC(N)=C(C(=O)OCC)C1c1cccc([N+](=O)[O-])c1 (configuration not stated)
78 | 82 to 83 | CCc1cc(CNc2cccc3ccccc23)c(OC)nc1C
79 | 174 | CN(C)CCSc1ccc2ccc(N)nc2n1

Row | melting point [°C] | Structure (SMILES)
80 | 236 to 239 | CC(=O)N1CCC(=O)NCc2ccccc21
81 | 95 to 97 | CCSC(=NC(=O)c1ccccc1)Nc1ccccc1F
82 | 206 to 208 | CCOC(=O)c1cc(=O)c(Oc2ccc(O)cc2)co1
83 | 172 to 173 | CCc1[nH]n(C2CCCC2)c2nc(Cc3ccc(OC)cc3)nc(=O)c1-2
84 | 204 to 205 | CSc1ccc(-n2c(-c3ccccc3)nc(SC)c(C#N)c2=O)cc1
85 | 177 | CC(C)(C)n1nc(-c2ccoc2)c(C(N)=O)c1N
86 | 219 to 220 | C[Si](C)(C)c1ccc2cc(C(=O)Nc3cnc4sc(CO)nc4c3)n(Cc3nccs3)c2c1
87 | 61.5 to 65.6 | CCC(=O)CC(C(C(=O)CC)c1ccc([N+](=O)[O-])cc1)[N+](=O)[O-] (configuration not stated)
88 | 133 to 134 | COc1ccc(CNc2cc(Cn3c(C(=O)c4cc(C)cc(C#N)c4)c(C(C)C)c(=O)[nH]c3=O)c(F)c(F)n2)cc1
89 | 149 to 150 | COc1ncccc1NC(=NC#N)NC(NC(=O)c1cc(Cl)cc(Cl)c1)C(C)(Cl)Cl (configuration not stated)
90 | 227 to 229 | COc1cccc(OCC(N)=O)c1-c1c(C#N)c2ccccn2c1Nc1c(C)cccc1C
91 | 114 to 117 | CCOC(=O)C1=C(C)NC(c2nccn2Cc2ccccc2)=NC1c1ccc(F)cc1Cl (configuration not stated)
92 | 40 | Cc1csc(C(=O)OC(C)C)c1N
93 | 79 to 81 | CC(C)Oc1ccc(C(=O)n2nc(Nc3ccc(OCc4ccccc4)cc3)nc2N)cc1
94 | 187 to 191 | CNC(=O)Cn1c(-c2ccc(Br)o2)nc2cccnc21
95 | > 250 | CCC1(O)CC(=O)OCc2c1cc1n(c2=O)Cc2c-1nc1ccccc1c2CC[Si](C)(C)C (configuration not stated)
96 | 90 to 95 | CCCN(c1ncnc2[nH]cnc12)n1ccc2ccccc21
97 | 167 to 169 | N#Cc1ccc(NC(=O)C(=O)N2CCC(Cc3ccc(F)cc3)CC2)cc1
